Where “and” joins values, the source holds several entries; their conditions need not be identical. Identical values can stand only once.
How the values were obtained:
HIV-I DNA [1] = assay: Example 2: fluorescence of amplification products; assay type: biochemical
Method: The method of this invention was compared to an amplification and detection method outside the scope of this invention, which was carried out using YOYO-1 (1 μmolar final concentration), a tetravalent fluorescent dye, in the buffered solution described above. This dye has the following structure: [drawing 4]
The PCR reaction mixture of Example 1 (except the DNA polymerase) was made to a volume of 5472 μl. The resulting mixture was aliquoted into tubes A, B and C (1824 μl each) representing Samples A, B and C, respectively.
The sample in Tube A was diluted with buffer (220 μl) and subjected to amplification without any fluorescence dye present. The dye was added at the end of amplification for quantitative detection of the resulting products.
In addition to the PCR reagents, the sample in Tube B contained YOYO-1 fluorescent dye (0.1 μmolar) which had been added prior to amplification (220 μl of a 10 μmolar solution).
The sample in Tube C also contained YO-PRO-1 fluorescent dye (0.1 μmolar) which had been added prior to amplification (220 μl of a 10 μmolar solution).
The DNA polymerase (88 μl) and target HIV-I DNA target nucleic acid (220 μl) were then added to each tube, and the contents of the each of the three tubes were used to fill the PCR reagent compartment of eight pouches.
Amplification was carried out using the same procedures as in Example 1. […]
The results of amplification were detected in three ways: (1) color dye scores visually evaluated as 0 (no signal) to 10 (highest signal density), (2) ethidium bromide stained electrophoretic gels, and (3) fluorescence measured on a commercially available Perkin Elmer fluorimeter.
Three replicate assays of each sample (A, B and C) were carried out using each detection means. The average result for each detection means was as follows:
Fluorescent signal was generated using a Perkin-Elmer LS-5B fluorimeter, at the following wavelengths for both dyes:
Each amplification product mixture was diluted 100× into a solution of each dye (1 μmolar final concentration). Background signals were obtained from a mixture of amplification reagent mixture and each dye.

HIV-I DNA [2] = assay: Example 1: PCR amplification of HIV-I DNA with YO-PRO-1 dye, fluorescence vs. PCR cycles; assay type: biochemical
Source text: The primers used in Examples 1 and 2 had the following sequences which are complementary to the gag region of HIV-I DNA:
HIV-I target DNA was obtained from HUT78/HIV AAV cells obtained from Bernie Poiesz of Syracuse University. Each cell contained about 1 HIV-I copy.
The final PCR reaction mixture contained the primers SEQ ID NO:1 and SEQ ID NO:2 (0.4 μmolar of each), magnesium chloride (10 mmolar), each of dATP, dCTP, dGTP and dTTP (1.5 mmolar of each), tris(hydroxymethyl)aminomethane buffer (10 mmolar, pH 8), ethylenediaminetetraacetic acid (0.1 mmolar), potassium chloride (50 mmolar), DNA polymerase (160 units/ml) and Kodak Ultrapure Human DNA (0.22 μg/μl), glycerol (7.5%). […]
All reagents, except the DNA polymerase, were mixed with the buffer solution noted above. […] The fluorescence of the contents of that tube was then measured following dilution (100 μl of reaction mixture with 3900 μl of dye solution at a concentration of […], giving a final fluid volume of 4 ml in the fluorimeter cuvette) on a commercially available Perkin-Elmer LS-5B spectrofluorimeter (excitation at 491 nm, emission at 509 nm).
The results of these measurements are shown in the FIGURE which is a plot of fluorescence intensity vs. the number of PCR cycles. […]

[3] = biological target: double-stranded nucleic acids; assay: Binding constant (Kb) of fluorescent dye with double-stranded nucleic acids; conditions: Kp from Molecular Probes catalog divided by 55
Source text: The fluorescent dyes useful herein are generally defined as unsymmetrical cyanine dyes having a binding constant (Kb) within the range of from about 1×104 to about 5×105 (molar^-1). As used to define Kb, "about" refers to a variance of 10%. The dyes are also water-soluble or water-dispersible so they can bind to the nucleic acids in the aqueous reaction mixture. Depending upon the anions used, the dyes may be dissolved in a water-miscible solvent.
Particularly useful fluorescent dyes are commercially available from Molecular Probes, Inc. having the trade names and Kp values listed in Table I below. However, this invention is not to be construed as limited to the particular Molecular Probes, Inc. dyes listed therein since these are but preferred dyes. The cations of these preferred dyes are also identified below by chemical structure. The compounds can include any suitable divalent anion, or two monovalent anions. Iodide is preferred. [drawing 3]
*The Kb values in the table were calculated by dividing the partitio
coefficient (Kp) reported in the Molecular Probes, Inc. catalog, page 224
by 55, the molarity of water.

HIV-I DNA [4] = assay: Example 3: fluorescence after amplification with dye; usefulness / PCR inhibition; assay type: biochemical
Method: The primers used in Example 3 had the following sequences which are complementary to the gag region of HIV-I DNA: Amplification experiments like those of Example 2 were also carried out to evaluate the usefulness of several other conventional fluorescent dye stains. In these assays, primers identified above as SEQ ID NO:3 and SEQ ID NO:4 were used, as well as the probe identified as SEQ ID NO:6. […] Fluorescence was determined as described in Example 2 except that all amplified samples were mixed with a solution of YOYO-1 (0.1 μmolar) to provide a common minimum threshold of signal.

## C[n+]1c(C=C2C=CN(CCC[N+](C)(C)C)c3ccccc32)oc2ccccc21 [Compound E]
HIV-I DNA [1]; Sample A, dye added after amplification, replicates, 491/509 nm, listed as YO-PRO-1
  Fluorescence, dye added after amplification (Sample A): 3.6 Fluorescent Units and 3.7 Fluorescent Units and 3.4 Fluorescent Units and 3.0 Fluorescent Units
HIV-I DNA [1]; amplification reagent mixture and dye, excitation 491 nm, emission 509 nm
  Background fluorescence: 0.03 Fluorescent Units
HIV-I DNA [1]; comparison of the two dyes (fluorescence)
  effect of dye on amplification / overall signal: lower overall signal
HIV-I DNA [1]; dye added prior to amplification, replicates, 491/509 nm, listed as YO-PRO-1
  Fluorescence, dye present during amplification (Samples B, C): 3.7 Fluorescent Units and 3.5 Fluorescent Units and 3.6 Fluorescent Units and 3.2 Fluorescent Units and 2.8 Fluorescent Units
HIV-I DNA [1]; dye included in reagent mixture during amplification
  signal and use of dye during amplification: can be included in the reagent mixture during amplification
HIV-I DNA [2]; after 45 PCR cycles, excitation 491 nm, emission 509 nm
  fluorescence after PCR: about 20 fluorescent units
HIV-I DNA [2]; dye present throughout entire amplification, 1 μmolar
  effect of dye on PCR: did not adversely affect PCR
[3]
  Kd: 6.67 µM
HIV-I DNA [4]; amplified samples mixed with YOYO-1 (0.1 μmolar)
  Fluorescent Signal: 16
HIV-I DNA [4]; dye in amplification
  usefulness of dye / inhibition of PCR: useful
